Reference: patent US9994594B2, “Inhibitors of arginase and their therapeutic applications” (MARS, INCORPORATED, priority 2010, dated 2018)
Where a name gives a salt, the structure may show the parent alone. Read-outs that look alike come from different tables or passages of the source.

Legend:
arginase II (ARG II) = molecular target: T1, arginase II (ARG II) (Homo sapiens, UniProt P78540); assay: Inhibition of arginase II, spectrophotometric urea assay at 530 nm; assay type: biochemical
T1 sequence (P78540 23-354): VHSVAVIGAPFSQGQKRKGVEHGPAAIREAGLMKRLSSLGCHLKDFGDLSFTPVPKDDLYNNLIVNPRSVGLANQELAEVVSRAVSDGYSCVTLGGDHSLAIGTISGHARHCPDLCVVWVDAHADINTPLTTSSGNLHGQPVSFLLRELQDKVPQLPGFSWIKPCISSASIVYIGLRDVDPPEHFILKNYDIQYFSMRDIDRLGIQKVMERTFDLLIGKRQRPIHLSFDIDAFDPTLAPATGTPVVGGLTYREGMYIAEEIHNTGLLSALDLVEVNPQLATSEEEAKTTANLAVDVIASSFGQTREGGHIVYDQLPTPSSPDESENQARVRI
Summary of the method: (§1)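 IC50 was derived by regression of OD530 normalized to uninhibited-enzyme controls against log concentration. Urea from 60-min, 37 °C turnover of L-arginine with manganese sulfate was detected after acid o-phthaldialdehyde/primaquine quench and 10 min colour development. Arginase I and II came from 100 ng/ml stocks in pH 7.4 phosphate with ovalbumin.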

human arginase I (ARG I) = molecular target: T2, human arginase I (ARG I) (Homo sapiens, UniProt P05089); assay: Inhibition of arginase I, spectrophotometric urea assay at 530 nm; assay type: biochemical; details: read-out: Potency (ARG I)
T2 sequence (P05089 1-322): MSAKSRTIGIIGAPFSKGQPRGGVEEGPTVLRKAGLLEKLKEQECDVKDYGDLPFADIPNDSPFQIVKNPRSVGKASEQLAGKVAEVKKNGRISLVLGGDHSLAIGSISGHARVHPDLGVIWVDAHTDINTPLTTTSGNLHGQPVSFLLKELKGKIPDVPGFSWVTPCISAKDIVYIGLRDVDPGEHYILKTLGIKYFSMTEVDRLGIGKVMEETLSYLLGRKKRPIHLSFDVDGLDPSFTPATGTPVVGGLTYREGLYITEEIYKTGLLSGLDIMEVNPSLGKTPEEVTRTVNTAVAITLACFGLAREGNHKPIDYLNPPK
Summary of the method: as §1

[1] = Formula II compounds, Table 2-A, read-out: Potency (ARG)
[2] = Formula II compounds, Table 2-A
[3] = Formula I compounds, Table 2, read-out: Potency (ARG II)

SMILES | IC50 (arginase II (ARG II); [1]) | IC50 (human arginase I (ARG I); [2]) | IC50 (arginase II (ARG II); [3]) | IC50 (human arginase I (ARG I); Formula I compounds, Table 2)
NC(CCCCB(O)O)(C(=O)O)[C@H]1C[C@@H](NCc2cccc3cccnc23)C1 (stereo partly drawn) [Example 79-A, cis-2-amino-6-borono-2-(3-(quinolin-8-ylmethylamino)cyclobutyl)hexanoic acid dihydrochloride] | 0.1 to 250 nM | 0.1 to 250 nM | – | –
NC(CCCCB(O)O)(C(=O)O)[C@H]1C[C@@H](NCc2cccc3ccccc23)C1 (stereo partly drawn) [Example 80-A, cis-2-amino-6-borono-2-(3-(naphthalen-1-ylmethylamino)cyclobutyl)hexanoic acid dihydrochloride] | 0.1 to 250 nM | 0.1 to 250 nM | – | –
NC(CCCCB(O)O)(C(=O)O)[C@H]1C[C@@H](N)C1 (stereo partly drawn) [Example 81-A, cis-2-amino-2-(3-aminocyclobutyl)-6-boronohexanoic acid dihydrochloride] | 0.1 to 250 nM | 0.1 to 250 nM | – | –
NC(CCCCB(O)O)(C(=O)O)[C@H]1C[C@@H](NCc2ccc(Cl)cc2)C1 (stereo partly drawn) [Example 82-A, cis-2-amino-6-borono-2-(3-(4-chlorobenzylamino)cyclobutyl)hexanoic acid dihydrochloride] | 0.1 to 250 nM | 0.1 to 250 nM | – | –
CC(C)CN[C@H]1C[C@@H](C(N)(CCCCB(O)O)C(=O)O)C1 (stereo partly drawn) [Example 83-A, cis-2-amino-6-borono-2-(3-(isobutylamino)cyclobutyl)hexanoic acid dihydrochloride] | 0.1 to 250 nM | 0.1 to 250 nM | – | –
NC(CCCCB(O)O)(C(=O)O)[C@H]1CC[C@@H](C(=O)c2ccc(Cl)cc2)CC1 (stereo partly drawn) [Example 84-A, cis-2-Amino-6-borono-2-[4-(4-Chlorobenzoyl)-cyclohexyl]hexanoic acid hydrochloride] | > 5000 nM | > 5000 nM | – | –
NC(CCCCB(O)O)(C(=O)O)C1CCN(c2ccc(Cl)cn2)CC1 (stereo not shown) [Example 85-A, 2-amino-6-borono-2-(1-(5-chloropyridin-2-yl)piperidin-4-yl)hexanoic acid hydrochloride] | 251 to 1000 nM | 1000 to 2000 nM | – | –
NC(CCCCB(O)O)(C(=O)O)C1CCC(c2ccc(Cl)cc2)CC1 (stereo not shown) [Example 86-A, 2-amino-6-borono-2-(4-(4-chlorophenyl)cyclohexyl)hexanoic acid hydrochloride] | > 5000 nM | > 5000 nM | – | –
NC(CCCCB(O)O)(C(=O)O)C1CCN(Cc2ccccc2)CC1 (stereo not shown) [Example 87-A, 2-amino-2-(1-benzylpiperidin-4-yl)-6-boronohexanoic acid dihydrochloride] | 0.1 to 250 nM | 0.1 to 250 nM | – | –
NC(CCCCB(O)O)(C(=O)O)C1CCNCC1 (stereo not shown) [Example 88-A, 2-amino-6-borono-2-(piperidin-4-yl)hexanoic acid dihydrochloride] | 251 to 1000 nM | 251 to 1000 nM | – | –
NC(CCCCB(O)O)(C(=O)O)C1CCN(Cc2ccc(Cl)cc2)CC1 (stereo not shown) [Example 89-A, 2-amino-6-borono-2-(1-(4-chlorobenzyl)piperidin-4-yl)hexanoic acid dihydrochloride] | 0.1 to 250 nM | 0.1 to 250 nM | – | –
NC(CCCCB(O)O)(C(=O)O)C1CCN(Cc2ccc3c(c2)OCO3)CC1 (stereo not shown) [Example 90-A, 2-amino-2-(1-(benzo[d][1,3]dioxol-5-ylmethyl)piperidin-4-yl)-6-boronohexanoic acid dihydrochloride] | 0.1 to 250 nM | 0.1 to 250 nM | – | –
NC(CCCCB(O)O)(C(=O)O)C1CCN(Cc2cc3c(cc2Cl)OCO3)CC1 (stereo not shown) [Example 91-A, 2-amino-6-borono-2-(1-((6-chlorobenzo[d][1,3]dioxol-5-yl)methyl)piperidin-4-yl)hexanoic acid dihydrochloride] | 251 to 1000 nM | 0.1 to 250 nM | – | –
CC(C)CCN1CCC(C(N)(CCCCB(O)O)C(=O)O)CC1 (stereo not shown) [Example 92-A, 2-amino-6-borono-2-(1-isopentylpiperidin-4-yl)hexanoic acid dihydrochloride] | 0.1 to 250 nM | 0.1 to 250 nM | – | –
NC(CCCCB(O)O)(C(=O)O)C1CCN(Cc2ccc(C(F)(F)F)cc2)CC1 (stereo not shown) [Example 93-A, 2-amino-6-borono-2-(1-(4-(trifluoromethyl)benzyl)piperidin-4-yl)hexanoic acid] | 251 to 1000 nM | 251 to 1000 nM | – | –
NC(CCCCB(O)O)(C(=O)O)C1CCN(Cc2ccc(F)cc2)CC1 (stereo not shown) [Example 94-A, 2-amino-6-borono-2-(1-(4-fluorobenzyl)piperidin-4-yl)hexanoic acid dihydrochloride] | 251 to 1000 nM | 0.1 to 250 nM | – | –

SMILES | IC50 (arginase II (ARG II); [1]) | IC50 (human arginase I (ARG I); [2]) | IC50 (arginase II (ARG II); [3]) | IC50 (human arginase I (ARG I); Formula I compounds, Table 2)
NC(CCCCB(O)O)(C(=O)O)C1CCN(Cc2ccc(Cl)c(Cl)c2)CC1 (stereo not shown) [Example 95-A, 2-amino-6-borono-2-(1-(3,4-dichlorobenzyl)piperidin-4-yl)hexanoic acid dihydrochloride] | 251 to 1000 nM | 0.1 to 250 nM | – | –
COc1cc(F)c(CN2CCC(C(N)(CCCCB(O)O)C(=O)O)CC2)cc1OC (stereo not shown) [Example 96-A, 2-amino-6-borono-2-(1-(2-fluoro-4,5-dimethoxybenzyl)piperidin-4-yl)hexanoic acid dihydrochloride] | 251 to 1000 nM | 0.1 to 250 nM | – | –
NC(CCCCB(O)O)(C(=O)O)C1CCN(Cc2ccc(Cl)cc2Cl)CC1 (stereo not shown) [Example 97-A, 2-amino-6-borono-2-(1-(2,4-dichlorobenzyl)piperidin-4-yl)hexanoic acid dihydrochloride] | 251 to 1000 nM | 251 to 1000 nM | – | –
NC(CCCCB(O)O)(C(=O)O)C1CCN(Cc2cccc3ccccc23)CC1 (stereo not shown) [Example 98-A, 2-amino-6-borono-2-(1-(naphthalen-1-ylmethyl)piperidin-4-yl)hexanoic acid dihydrochloride] | 0.1 to 250 nM | 0.1 to 250 nM | – | –
NC(CCCCB(O)O)(C(=O)O)C1CCN(Cc2ccc3ccccc3c2)CC1 (stereo not shown) [Example 99-A, 2-amino-6-borono-2-(1-(naphthalen-2-ylmethyl)piperidin-4-yl)hexanoic acid dihydrochloride] | 0.1 to 250 nM | 0.1 to 250 nM | – | –
NC(CCCCB(O)O)(C(=O)O)C1CCN(Cc2ccc(OC(F)(F)F)cc2)CC1 (stereo not shown) [Example 100-A, 2-amino-6-borono-2-(1-(4-(trifluoromethoxy)benzyl)piperidin-4-yl)hexanoic acid dihydrochloride] | 0.1 to 250 nM | 0.1 to 250 nM | – | –
CCCN1CCC(C(N)(CCCCB(O)O)C(=O)O)CC1 (stereo not shown) [Example 101-A, 2-amino-6-borono-2-(1-propylpiperidin-4-yl)hexanoic acid dihydrochloride] | 0.1 to 250 nM | 251 to 1000 nM | – | –
NC(CCCCB(O)O)(C(=O)O)C1CCN(CCCc2ccccc2)CC1 (stereo not shown) [Example 102-A, 2-amino-6-borono-2-(1-(3-phenylpropyl)piperidin-4-yl)hexanoic acid dihydrochloride] | 0.1 to 250 nM | 0.1 to 250 nM | – | –
NC(CCCCB(O)O)(C(=O)O)C1CCN(Cc2cccc(OC(F)(F)F)c2)CC1 (stereo not shown) [Example 103-A, 2-amino-6-borono-2-(1-(3-(trifluoromethoxy)benzyl)piperidin-4-yl)hexanoic acid dihydrochloride] | 0.1 to 250 nM | 0.1 to 250 nM | – | –
NC(CCCCB(O)O)(C(=O)O)C1CCN(Cc2csc3ccccc23)CC1 (stereo not shown) [Example 104-A, 2-amino-2-(1-(benzo[b]thiophen-3-ylmethyl)piperidin-4-yl)-6-boronohexanoic acid dihydrochloride] | 0.1 to 250 nM | 0.1 to 250 nM | – | –
NC(CCCCB(O)O)(C(=O)O)C1CCN(Cc2cccc(C(=O)O)c2)CC1 (stereo not shown) [Example 105-A, 3-((4-(1-amino-5-borono-1-carboxypentyl)piperidin-1-yl)methyl)benzoic acid dihydrochloride] | 251 to 1000 nM | 251 to 1000 nM | – | –
N#Cc1cccc(CN2CCC(C(N)(CCCCB(O)O)C(=O)O)CC2)c1 (stereo not shown) [Example 106-A, 2-amino-6-borono-2-(1-(3-cyanobenzyl)piperidin-4-yl)hexanoic acid dihydrochloride] | 251 to 1000 nM | 251 to 1000 nM | – | –
N[C@](CCCCB(O)O)(CCN1Cc2ccccc2C[C@H]1CO)C(=O)O [compound 1, (R)-2-amino-6-borono-2-(2-((S)-3-(hydroxymethyl)-3,4-dihydroisoquinolin-2(1H)-yl)ethyl)hexanoic acid dihydrochloride] | – | – | 251 to 1000 nM | 251 to 1000 nM
COC[C@@H]1CCCN1CC[C@](N)(CCCCB(O)O)C(=O)O [compound 2, (R)-2-amino-6-borono-2-(2-((S)-2-(methoxymethyl)pyrrolidin-1-yl)ethyl)hexanoic acid dihydrochloride] | – | – | 251 to 1000 nM | 251 to 1000 nM
COC[C@H]1CCCN1CC[C@](N)(CCCCB(O)O)C(=O)O [compound 3, (R)-2-amino-6-borono-2-(2-((R)-2-(methoxymethyl)pyrrolidin-1-yl)ethyl)hexanoic acid dihydrochloride] | – | – | 1000 to 2000 nM | 1000 to 2000 nM
N[C@](CCCCB(O)O)(CCN1CCC(O)CC1)C(=O)O [compound 4, (R)-2-amino-6-borono-2-(2-(4-hydroxypiperidin-1-yl)ethyl)hexanoic acid dihydrochloride] | – | – | 251 to 1000 nM | 251 to 1000 nM
